Laboratory results from US11819533B2, “Compositions and methods for the treatment of fungal infections” (Cidara Therapeutics, Inc., priority 2017, dated 2023).
Starred links: 1 amine or outer side, 2 acyl side, 3 side chain; linkers in the order of their positions; H or OH if unused. Positions of bridges follow the written chain, without caps; N, C: chain ends. Non-standard residues stand in square brackets, D forms with d. Residues, ends and D or L forms follow the SMILES beside them. *: point of attachment. Orn(4R-OH,5R-OCH2CH2NMe3+) = C[N+](C)(C)CCO[C@@H](N[*:3])[C@H](O)C[C@H](N[*:1])C(=O)[*:2]; pTerphenylCO(4''-OnC5H11) = CCCCCOc1ccc(-c2ccc(-c3ccc(C(=O)*)cc3)cc2)cc1; hTyr(3S-OH,4S-OH) = N[C@H](C(=O)O)[C@H](O)[C@@H](O)c1ccc(O)cc1; Pro(3S-OH,4S-Me) = C[C@H]1CN[C@H](C(=O)O)[C@H]1O; Hyp = O=C(O)[C@@H]1C[C@@H](O)CN1

Tested on: Sprague Dawley rats
Test: 14-day repeat-dose intravenous infusion toxicity study
Assay type: in vivo
Details: for Animals that did not receive ten consecutive days of treatment (Days 5-14): females
Method: The primary purpose of this study was to evaluate the toxicity of CD101 when administered intravenously as a 20-minute infusion into the lateral tail vein of Sprague Dawley rats for fourteen consecutive days. A positive control group (Eraxis®) with a similar structure and pharmacodynamic activity was included in the study design.
The test article, CD101 acetate, was a white to off-white powder. The test article was prepared into dosing formulations for intravenous dose administration. One hundred experimentally naïve Sprague Dawley rats (50 males and 50 females), a minimum of 8 weeks old and weighing 255-318 grams (males) and 192-215 (females) at the outset of the study were assigned to treatment groups as shown in Table 7 below:
All animals were dosed on Days 1 through 3 inclusive. As a result of tail vein irritation observed among all study groups, dose administration was suspended on Day 4 to allow the tails to recover. Dosing resumed on Day 5 and continued for a maximum of ten additional days (Days 5 through 14 inclusive). Animals that could no longer be dosed during this time remained on study.
Male and female Sprague Dawley rats were to receive CD101 acetate at doses of 0, 2, 6 and 20 mg/kg/day (Groups 1, 3, 4 and 5, respectively) or Eraxis® (the positive control article, Group 2) at a dose of 40 mg/kg/day, intravenously as a 20 minute infusion into the left or right lateral tail vein for fourteen consecutive days. During the first three treatment days, all animals were dosed with the first vehicle used on this study (1.75% Tween 80/5% Dextrose: Groups 1 and 3-5; 5% Dextrose: Group 2). As a result of the localized tail swelling observed during the first three days of treatment, study Day 4 served as a drug-free day to alleviate tail vein irritation. Dose administration resumed on Day 5 using a new vehicle (5% Mannitol/2.5% Tween 80/0.3% acetic acid: Groups 1 and 3-5; 5% Mannitol/0.3% acetic acid: Group 2) for the remainder of the treatment period (Days 5-14). Those animals that could no longer be dosed because of severe vein irritation were retained on study, untreated, until the end of the study (Day 15).

CCCCCOc1ccc(-c2ccc(-c3ccc(C(=O)N[C@H]4C[C@@H](O)[C@@H](OCC[N+](C)(C)C)NC(=O)[C@@H]5[C@@H](O)[C@@H](C)CN5C(=O)[C@H]([C@@H](C)O)NC(=O)[C@H]([C@H](O)[C@@H](O)c5ccc(O)cc5)NC(=O)[C@@H]5C[C@@H](O)CN5C(=O)[C@H]([C@@H](C)O)NC4=O)cc3)cc2)cc1 [CD101 acetate] ({pTerphenylCO(4''-OnC5H11)}-[Orn(4R-OH,5R-OCH2CH2NMe3+)]T[Hyp][hTyr(3S-OH,4S-OH)]T[Pro(3S-OH,4S-Me)]; lactam 1-C)
Incidence of tail vein irritation (Days 1-3, first vehicle (1.75% Tween 80 and 5% Dextrose for CD101 acetate; 5% Dextrose for Eraxis), Eraxis 40 mg/kg/day, CD101 acetate 6 and 20 mg/kg/day, males and females): highest
Vein irritation compared to Groups 1, 3 and 4 (Days 5-14, second vehicle (5% Mannitol, 2.5% Tween 80, 0.3% Acetic Acid for CD101 acetate; 5% Mannitol and 0.3% Acetic Acid for Eraxis), Eraxis 40 mg/kg/day, CD101 acetate 20 mg/kg/day): only marginally higher
Animals that did not receive ten consecutive days of treatment (Days 5-14) (high dose 20 mg/kg/day (Group 5), second vehicle 5% Mannitol/2.5% Tween 80/0.3% acetic acid): 90%
Animals that did not receive ten consecutive days of treatment (Days 5-14) (low dose 2 mg/kg/day (Group 3), second vehicle 5% Mannitol/2.5% Tween 80/0.3% acetic acid): 10%
Animals that did not receive ten consecutive days of treatment (Days 5-14) (mid-dose 6 mg/kg/day (Group 4), second vehicle 5% Mannitol/2.5% Tween 80/0.3% acetic acid): 10%
Animals dosed for less than the intended ten-day duration (Days 5-14) as a result of tail swelling/lesions (males, high dose 20 mg/kg/day (Group 5), second vehicle 5% Mannitol/2.5% Tween 80/0.3% acetic acid): 30%
